According to PMC7822861, “A functional family of fluorescent nucleotide analogues to investigate actin dynamics and energetics” (Nature Communications, 2021):

Biological target: T1, actin (G-actin, rabbit muscle) (Oryctolagus cuniculus, UniProt P68135)
T1 construct: gene ACTA1; rabbit muscle actin monomer; with mouse twinfilin C-terminal ADF-H domain (residues 176–316), in the crystal only
Experiment: co-crystal structure ([…] Å); fluorescence anisotropy association/dissociation kinetics
Format: binding

- k-: ~ (1 ± 0.4) × 10^−3 (k−) s^−1
Substance: ATP-ATTO-488
